Source: PubChem BioAssay (NCI)
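Five concentrations, 48 hours, 96-well plates. Here, GI50 denotes the concentration required for 50% inhibition of growth. The concentration for full growth arrest is given as TGI.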

Tests used:
Experiment in all cases: inhibition of tumour cell growth, NCI panel, 48 h
T-47D breast = system: T-47D breast
MDA-MB-468 breast = system: MDA-MB-468 breast
ACHN renal = system: ACHN renal
HOP-62 NSCLC = system: HOP-62 NSCLC
BT-549 breast = system: BT-549 breast
OVCAR-4 ovarian = system: OVCAR-4 ovarian
CCRF-CEM leukemia = system: CCRF-CEM leukemia
HCT-15 colon = system: HCT-15 colon
MDA-MB-435 = system: MDA-MB-435
MCF7 breast = system: MCF7 breast
MOLT-4 leukemia = system: MOLT-4 leukemia
NCI-H226 lung = system: NCI-H226 lung
EKVX NSCLC = system: EKVX NSCLC
SR leukemia = system: SR leukemia
DU-145 prostate = system: DU-145 prostate
SK-MEL-5 melanoma = system: SK-MEL-5 melanoma
HCC-2998 colon = system: HCC-2998 colon
CAKI-1 renal = system: CAKI-1 renal
SK-OV-3 ovarian = system: SK-OV-3 ovarian
NCI/ADR-RES ovarian = system: NCI/ADR-RES ovarian
PC-3 prostate = system: PC-3 prostate
NCI-H522 lung = system: NCI-H522 lung
RPMI-8226 leukemia = system: RPMI-8226 leukemia
A549 NSCLC = system: A549 NSCLC
786-0 renal = system: 786-0 renal
OVCAR-5 ovarian = system: OVCAR-5 ovarian
LOX IMVI melanoma = system: LOX IMVI melanoma
MALME-3M melanoma = system: MALME-3M melanoma
K-562 leukemia = system: K-562 leukemia
SW-620 colon = system: SW-620 colon
SK-MEL-28 melanoma = system: SK-MEL-28 melanoma
OVCAR-8 ovarian = system: OVCAR-8 ovarian
OVCAR-3 ovarian = system: OVCAR-3 ovarian
SN12C renal = system: SN12C renal
SF-268 CNS = system: SF-268 CNS
UACC-257 melanoma = system: UACC-257 melanoma
M14 melanoma = system: M14 melanoma
COLO 205 colon = system: COLO 205 colon
RXF 393 renal = system: RXF 393 renal
HCT-116 colon = system: HCT-116 colon
U251 CNS = system: U251 CNS
SNB-19 CNS = system: SNB-19 CNS
HL-60(TB) leukemia = system: HL-60(TB) leukemia
HT29 colon = system: HT29 colon
SF-539 CNS = system: SF-539 CNS
IGROV1 ovarian = system: IGROV1 ovarian
UACC-62 melanoma = system: UACC-62 melanoma
NCI-H460 lung = system: NCI-H460 lung
NCI-H23 lung = system: NCI-H23 lung
TK-10 renal = system: TK-10 renal
HS 578T breast = system: HS 578T breast
SF-295 CNS = system: SF-295 CNS
HOP-92 NSCLC = system: HOP-92 NSCLC
A498 renal = system: A498 renal
KM12 colon = system: KM12 colon

c1n[nH]cc1-c1nc2ccc3[nH]ncc3c2c2c1CC1(CCOCC1)CC2
GI50 (T-47D breast): 13 µM
TGI (T-47D breast): 55.8 µM
GI50 (MDA-MB-468 breast): 10.7 µM
TGI (MDA-MB-468 breast): 23.2 µM
GI50 (ACHN renal): 7.72 µM
TGI (ACHN renal): > 100 µM
GI50 (HOP-62 NSCLC): 15.4 µM
TGI (HOP-62 NSCLC): 43.3 µM
GI50 (BT-549 breast): 5.05 µM
TGI (BT-549 breast): 18.9 µM
GI50 (OVCAR-4 ovarian): 23.4 µM
TGI (OVCAR-4 ovarian): 89.2 µM
GI50 (CCRF-CEM leukemia): 22.1 µM
TGI (CCRF-CEM leukemia): 80.9 µM
GI50 (HCT-15 colon): 19.8 µM
TGI (HCT-15 colon): > 100 µM
GI50 (MDA-MB-435): 11.6 µM
TGI (MDA-MB-435): 25.4 µM
GI50 (MCF7 breast): 13 µM
TGI (MCF7 breast): 40.9 µM
GI50 (MOLT-4 leukemia): 13.4 µM
TGI (MOLT-4 leukemia): 42.7 µM
GI50 (NCI-H226 lung): 13.9 µM
TGI (NCI-H226 lung): 39.2 µM
GI50 (EKVX NSCLC): 19.2 µM
TGI (EKVX NSCLC): 54.4 µM
GI50 (SR leukemia): 3.33 µM
TGI (SR leukemia): 15.2 µM
GI50 (DU-145 prostate): 17.9 µM
TGI (DU-145 prostate): > 100 µM
GI50 (SK-MEL-5 melanoma): 14.8 µM
TGI (SK-MEL-5 melanoma): 28.7 µM
GI50 (HCC-2998 colon): 12.1 µM
TGI (HCC-2998 colon): 32 µM
GI50 (CAKI-1 renal): 17.3 µM
TGI (CAKI-1 renal): 38.5 µM
GI50 (SK-OV-3 ovarian): 4.09 µM
TGI (SK-OV-3 ovarian): 60.2 µM
GI50 (NCI/ADR-RES ovarian): 58.3 µM
TGI (NCI/ADR-RES ovarian): > 100 µM
GI50 (PC-3 prostate): 16.7 µM
TGI (PC-3 prostate): > 100 µM
GI50 (NCI-H522 lung): 4.84 µM
TGI (NCI-H522 lung): 21.2 µM
GI50 (RPMI-8226 leukemia): 11.1 µM
TGI (RPMI-8226 leukemia): 42.7 µM
GI50 (A549 NSCLC): 22.8 µM
TGI (A549 NSCLC): > 100 µM
GI50 (786-0 renal): 14.9 µM
TGI (786-0 renal): 43.1 µM
GI50 (OVCAR-5 ovarian): 27.7 µM
TGI (OVCAR-5 ovarian): 92.3 µM
GI50 (LOX IMVI melanoma): 8.51 µM
TGI (LOX IMVI melanoma): 21.5 µM
GI50 (MALME-3M melanoma): 14.1 µM
TGI (MALME-3M melanoma): 27.9 µM
GI50 (K-562 leukemia): 16.9 µM
TGI (K-562 leukemia): > 100 µM
GI50 (SW-620 colon): 5.05 µM
TGI (SW-620 colon): > 100 µM
GI50 (SK-MEL-28 melanoma): 12.1 µM
TGI (SK-MEL-28 melanoma): 25.6 µM
GI50 (OVCAR-8 ovarian): 13.3 µM
TGI (OVCAR-8 ovarian): 32.6 µM
GI50 (OVCAR-3 ovarian): 16.8 µM
TGI (OVCAR-3 ovarian): 65.3 µM
GI50 (SN12C renal): 13.3 µM
TGI (SN12C renal): 44.3 µM
GI50 (SF-268 CNS): 16.6 µM
TGI (SF-268 CNS): 41.2 µM
GI50 (UACC-257 melanoma): 14.7 µM
TGI (UACC-257 melanoma): 36.5 µM
GI50 (M14 melanoma): 6.24 µM
TGI (M14 melanoma): 20.9 µM
GI50 (COLO 205 colon): 5.62 µM
TGI (COLO 205 colon): 22.2 µM
GI50 (RXF 393 renal): 3.55 µM
TGI (RXF 393 renal): 16.1 µM
GI50 (HCT-116 colon): 4.62 µM
TGI (HCT-116 colon): > 100 µM
GI50 (U251 CNS): 11.4 µM
TGI (U251 CNS): > 100 µM
GI50 (SNB-19 CNS): 19.3 µM
TGI (SNB-19 CNS): 71.2 µM
GI50 (HL-60(TB) leukemia): 8.38 µM
TGI (HL-60(TB) leukemia): 28.5 µM
GI50 (HT29 colon): 12.5 µM
TGI (HT29 colon): > 100 µM
GI50 (SF-539 CNS): 13.5 µM
TGI (SF-539 CNS): 27.3 µM
GI50 (IGROV1 ovarian): 19.8 µM
TGI (IGROV1 ovarian): 69.6 µM
GI50 (UACC-62 melanoma): 4.37 µM
TGI (UACC-62 melanoma): 15.8 µM
GI50 (NCI-H460 lung): 10.1 µM
TGI (NCI-H460 lung): 26.4 µM
GI50 (NCI-H23 lung): 13.8 µM
TGI (NCI-H23 lung): 28.8 µM
GI50 (TK-10 renal): 8.2 µM
TGI (TK-10 renal): > 100 µM
GI50 (HS 578T breast): 7.74 µM
TGI (HS 578T breast): 37.5 µM
GI50 (SF-295 CNS): 24.9 µM
TGI (SF-295 CNS): 71.1 µM
GI50 (HOP-92 NSCLC): 13.4 µM
TGI (HOP-92 NSCLC): 64.1 µM
GI50 (A498 renal): 6.66 µM
TGI (A498 renal): 22.4 µM
GI50 (KM12 colon): 19.2 µM
TGI (KM12 colon): 47.8 µM
